Measured values from ChEMBL document CHEMBL6120976, “Derivatization of Microcystins Can Increase Target Inhibition while Reducing Cellular Uptake” (J Nat Prod, 2025).
Numbered stars: 1 amine (or outer) side, 2 acyl side, 3 side chain; on linkers, the order of the positions; unused ones are H or OH. Bridge positions count the residues as written; N and C are the ends. Square brackets hold non-standard residues; d marks the D form. Peptide text beside a SMILES is read from it. Adda = CO[C@@H](Cc1ccccc1)[C@@H](C)/C=C(C)/C=C/[C@H](N[*:1])[C@H](C)C(=O)[*:2]; dAsp(3S-Me) = C[C@H](C(=O)[*:3])[C@@H](N[*:1])C(=O)[*:2]; d(γGlu) = O=C(O)[C@@H](CCC(=O)[*:2])N[*:1]; NMeDha = C=C(NC)C(=O)O

What was measured:
[1] = tested on: OATP1B1; experiment: Cytotoxicity against sodium butyrate-treated HEK293 cells transfected with OATP1B1 incubated for 48 hrs by absorbance based assay; format: toxicity, cell-based; conditions: human
[2] = Selectivity index, ratio of EC50 for cytotoxicity against sodium butyrate-treated HEK293 cells transfected with OATP1B3 to IC50 for inhibition of PP1 (unknown origin); format: cell-based
[3] = Selectivity index, ratio of EC50 for cytotoxicity against sodium butyrate-treated HEK293 cells transfected with OATP1B1 to EC50 for cytotoxicity against sodium butyrate-treated HEK293 cells transfected with OATP1B3; format: cell-based
[4] = Selectivity index, ratio of EC50 for cytotoxicity against sodium butyrate-treated HEK293 cells transfected with OATP1B1 to IC50 for inhibition of PP1 (unknown origin); format: cell-based
[5] = tested on: OATP1B3; experiment: Cytotoxicity against sodium butyrate-treated HEK293 cells transfected with OATP1B3 incubated for 48 hrs by absorbance based assay; format: toxicity, cell-based; conditions: human
[6] = Inhibition of PP1 (unknown origin) incubated for 2 hrs by absorbance based assay; design: species or system Homo sapiens

## C=C1C(=O)N[C@H](C)C(=O)N[C@@H](CC(C)C)C(=O)N[C@@H](C(=O)O)[C@H](C)C(=O)N[C@@H](CCCNC(=N)N)C(=O)N[C@@H](/C=C/C(C)=C/[C@H](C)[C@H](Cc2ccccc2)OC)[C@H](C)C(=O)N[C@@H](C(=O)O)CCC(=O)N1C [MICROCYSTIN-LR] (R[Adda][d(γGlu)][NMeDha][dA]L[dAsp(3S-Me)]-OH; lactam N-7)
[1]
  EC50 at 48 h: 8.8 nM
[2]
  Ratio: 1.7
[3]
  Ratio EC50: 1
[4]
  Ratio: 1.6
[5]
  EC50 at 48 h: 9.3 nM
[6]
  IC50: 5.5 nM
